The source of these data is US20230241030A1, “MACROGOL 15 HYDROXYSTEARATE FORMULATIONS” (Allergan, Inc., priority 2011, published 2023).

Format in all cases: physicochemical
Series [1] in a line: Solubility in formulation vehicles with different solubilizers. Conditions: for Solubility in vehicle containing Solutol 15 HS compared to polyoxyethylated surfactants: comparison in words; for solubility at 8 weeks: read-out: Solubility (mg/ml) measured after 8 weeks. An excerpt:
Table 1 summarizes solubility of Cmpd 1 in vehicles with 4 different solubilizers over a range of temperatures.

The nature of series [2]: Stability of Cmpd 1 in formulations, impurities by percent area LC. Conditions: macrogol 15 hydroxystearate vs PS80 formulation of Table 3; 25° C. and 40° C. storage; FIGS. 2A-D. On the procedure: FIGS. 2A-D: Stability results for Cmpd 1 in formulations containing either polysorbate 80 (PS80) or macrogol 15 hydroxystearate (Sol-2) as solubilizer as shown in Table 3. See Examples. […] Impurity amounts were calculated by percent area by liquid chromatography (LC). FIG. 2A: 25° C. storage, total impurities. FIG. 2B: 25° C. storage, major degradation product. FIG. 2C: 40° C. storage, total impurities. FIG. 2D: 40° C. storage, major degradation product. Legend: as in FIG. 1.

Series [3] in a line: Stability of Cmpd 2 in formulations, percent remaining by LC. Here is the method: FIG. 1. See Examples. Samples were stored at 25° C. Axes: x-axis (time, months); y-axis (stability of Cmpd 2 as measured by percent remaining by liquid chromatography, LC). Legend: macrogol 15 hydroxystearate (box); polysorbate 80 (diamond).
See Examples. […] Axes: x-axis (time, months); y-axis (stability of Cmpd 2 as measured by percent remaining by liquid chromatography, LC). Legend Formulation PSI, storage 40° C./20% RH, % remaining by LC (Diamond); Formulation Sol1, storage 40° C./20% RH, % remaining by LC (Square); Formulation PSI, storage 25° C./40% RH, % remaining by LC (Triangle); Formulation Sol1, storage 25° C./40% RH, % remaining by LC (cross); Formulation PSI, storage 5° C., % remaining by LC (Asterix); Formulation Sol1, storage 5° C., % remaining by LC (circle).
Axes: x-axis (time, months); y-axis (stability of Cmpd 2 as measured by percent remaining by liquid chromatography, LC). Legend Formulation #2, storage 5°, % remaining by LC (Diamond); Formulation #2, storage 25° C./40% RH, % remaining by LC (Square); Formulation #2, storage 30° C./60% RH, % remaining by LC (Triangle); Formulation #5, storage 5° C., % remaining by LC (cross); Formulation #5, storage 25° C./40% RH, % remaining by LC (Asterix); Formulation #5, storage 30° C./60% RH, % remaining by LC (circle).

Series [4] is described as follows: Cmpd 4 solubility in Solutol HS 15 vehicles.

≈ marks a conversion by molar mass, not a printed value. Where two headings read alike, the source gives them in different places.

Take `CCCCC[C@H](O)c1ccc(N2C(=O)CC[C@@H]2COCc2ccc(C(=O)OC(C)C)s2)cc1` [Cmpd 1, isopropyl 5-((((R)-1-(4-((S)-1-hydroxyhexyl)phenyl)-5-oxopyrrolidin-2-yl)methoxy)methyl)thiophene-2-carboxylate]: the “Solubility in vehicle containing Solutol 15 HS compared to polyoxyethylated surfactants” value in series [1] is recorded as “higher than that containing POE40 stearate or polysorbate 20, but slightly lower than that containing Polysorbate 80”. Also, the solubility at 8 weeks came to 1.27 mg/mL (≈ 2680 µM) in series [1] (formulation vehicle with 1% POE 40 Stearate, aqueous with cosolvent or surfactant or cyclodextrin, vehicle with 1% POE 40 Stearate, 5 °C); 1.21 mg/mL (≈ 2560 µM) in series [1] (formulation vehicle with 1% POE 40 Stearate, aqueous with cosolvent or surfactant or cyclodextrin, vehicle with 1% POE 40 Stearate, 25 °C); 1.15 mg/mL (≈ 2430 µM) in series [1] (formulation vehicle with 1% POE 40 Stearate, aqueous with cosolvent or surfactant or cyclodextrin, vehicle with 1% POE 40 Stearate, 40 °C); 1.24 mg/mL (≈ 2620 µM) in series [1] (formulation vehicle with 1% Polysorbate 20, aqueous with cosolvent or surfactant or cyclodextrin, vehicle with 1% Polysorbate 20, 5 °C); 1.18 mg/mL (≈ 2490 µM) in series [1] (formulation vehicle with 1% Polysorbate 20, aqueous with cosolvent or surfactant or cyclodextrin, vehicle with 1% Polysorbate 20, 25 °C); 1.05 mg/mL (≈ 2220 µM) in series [1] (formulation vehicle with 1% Polysorbate 20, aqueous with cosolvent or surfactant or cyclodextrin, vehicle with 1% Polysorbate 20, 40 °C). The solubility at 8 weeks in series [1] (formulation vehicle with 1% Polysorbate 80, aqueous with cosolvent or surfactant or cyclodextrin, vehicle with 1% Polysorbate 80, 5 °C) is 1.68 mg/mL (≈ 3540 µM); in series [1] (formulation vehicle with 1% Polysorbate 80, aqueous with cosolvent or surfactant or cyclodextrin, vehicle with 1% Polysorbate 80, 25 °C), 1.52 mg/mL (≈ 3220 µM); in series [1] (formulation vehicle with 1% Polysorbate 80, aqueous with cosolvent or surfactant or cyclodextrin, vehicle with 1% Polysorbate 80, 40 °C) it was 1.46 mg/mL (≈ 3080 µM); in series [1] (formulation vehicle with 1% Solutol HS 15, aqueous with cosolvent or surfactant or cyclodextrin, vehicle with 1% Solutol HS 15, 5 °C), 1.5 mg/mL (≈ 3170 µM); in series [1] (formulation vehicle with 1% Solutol HS 15, aqueous with cosolvent or surfactant or cyclodextrin, vehicle with 1% Solutol HS 15, 25 °C), 1.32 mg/mL (≈ 2790 µM); in series [1] (formulation vehicle with 1% Solutol HS 15, aqueous with cosolvent or surfactant or cyclodextrin, vehicle with 1% Solutol HS 15, 40 °C) it was 1.24 mg/mL (≈ 2610 µM). Moreover, in series [2], the “Oxidative degradation (total impurities, major degradation product)” value is on record as “prevent oxidative degradation seen in PS80 containing formulations”.

Consider `CCCCC[C@H](O)c1ccc(N2C(=O)CC[C@@H]2CCCc2ccc(C(=O)OC(C)C)s2)cc1` [Cmpd 2, isopropyl 5-(3-((S)-1-(4-((S)-1-hydroxyhexyl)phenyl)-5-oxopyrrolidin-2-yl)propyl)thiophene-2-carboxylate], for which, in series [1], the “Solubility in vehicle containing Solutol 15 HS compared to polyoxyethylated surfactants” value is “comparable or better solubility”. The “Degradation (percent remaining by LC)” value is on record as “prevent degradation seen in PS80 containing formulations at all storage conditions” in series [3] (macrogol 15 hydroxystearate (#2) vs PS80 (#5) formulation of Table 8, 5° C., 25° C./40% RH, 30° C./60% RH, FIG. 4) and “prevent degradation seen in PS80 containing formulations” in series [3] (macrogol 15 hydroxystearate vs PS80 formulation of Table 7, 40° C./20% RH storage, FIG. 3).

For `Cc1c(COC(=O)C(C)(C)C)cccc1[C@H](C)c1c[nH]cn1` [Cmpd 4, 3-[(1S)-1-(1H-imidazol-4-yl)ethyl]-2-methylbenzyl pivalate], the “Cmpd 4 Solubility (% w/w) <mixing overnights (>24 hr) at ambient room temperature>” value in series [4] (0.1% Solutol HS 15, adjusted to pH 5.5, final pH 5.9 post-filtration) is 0.07 % w/w; in series [4] (0.1% Solutol HS 15, adjusted to pH 6.5, final pH 6.7 post-filtration) it was 0.02 % w/w; in series [4] (0.5% Solutol HS 15, adjusted to pH 5.5, final pH 6.1 post-filtration), 0.11 % w/w; in series [4] (0.5% Solutol HS 15, adjusted to pH 6.5, final pH 6.8 post-filtration), 0.06 % w/w; in series [4] (1.0% Solutol HS 15, adjusted to pH 5.5, final pH 6.1 post-filtration), 0.16 % w/w; in series [4] (1.0% Solutol HS 15, adjusted to pH 6.5, final pH 6.8 post-filtration), 0.10 % w/w.
